According to EPA's aquatic toxicity sets:
“And” between values parts separate entries of the source, which are not always exact repeats. Equal entries are not always repeated.

Tested on: Tetrahymena pyriformis
Experiment: 48 h IGC50 (-log10 mol/L); higher = more toxic

Compound | 48 h IGC50 (-log10 mol/L)
COC(=O)CC(=O)OC | 1.71
O=C(O)c1cc(Cl)ccc1O | 2.6
N#CCCc1ccccc1 | 2.84
c1ccc(Cc2cccnc2)cc1 | 3.68
CC(Br)C#N (configuration not stated) | 3.63
Cc1ccccc1C(=O)c1ccccc1 | 4.37
O=[N+]([O-])c1cc(CO)cc([N+](=O)[O-])c1 | 3.53
Cc1cc2ccccc2n1C | 3.84
CCCC(CCC)C(=O)O | 3.03
CCCC/C=C/CO | 3.04
COC(=O)c1ccc(C(=O)OC)c([N+](=O)[O-])c1 | 3.43
N#CCc1ccc(O)cc1 | 2.62
CCCc1ccc(O)cc1 | 3.64
CCOc1cccc(C=O)c1O | 3.85
Cc1cc(O)c(Cl)cc1C | 3.69
COC(=O)c1ccc(C=O)cc1 | 3.3
S=C=NCCCN=C=S | 5.72 and 5.74
COc1cccc2ccccc12 | 3.8
CC(=O)C(C)Cl (configuration not stated) | 3.27
OCCc1ccc(O)cc1 | 2.17
O=[N+]([O-])c1ccc(Br)nc1 | 4.07
CCCCC/C=C/C(=O)O | 3.21
CCCCCl | 2.09
C=COC(=O)CCCCCCC | 2.7

Compound | 48 h IGC50 (-log10 mol/L)
CCC(O)CC | 1.76
CC(CN)c1ccccc1 (configuration not stated) | 2.72
COc1ccccc1C=O | 3.15
C=CC(=O)N(C)C | 1.76
O=C(CBr)Oc1ccc([N+](=O)[O-])cc1 | 4.81
O=[N+]([O-])c1ccncc1 | 3.41
CCCCC(N)CO (configuration not stated) | 2.42
O=[N+]([O-])c1ccc(Cl)cc1Cl | 3.99
C/C(=N\O)C(=O)c1ccccc1 | 2.96
CCOC(=O)c1ccc(OC)cc1 | 3.77
c1ccc(Cc2ccncc2)cc1 | 3.63
NCC(O)CN | 1.57
Nc1ccc(C(=O)c2ccccc2)cc1 | 3.68
Cc1ccc(O)cc1[N+](=O)[O-] | 3.74
O=C(c1ccccc1)c1ccccc1 | 3.87
O=Nc1ccc(O)cc1 | 3.65
CC(O)Cc1ccccc1 (configuration not stated) | 2.38
Oc1ccccc1Br | 3.33
Nc1ncc([N+](=O)[O-])cn1 | 2.57
CC(C)(C)CO | 2.13
Nc1c(Br)cc([N+](=O)[O-])cc1[N+](=O)[O-] | 4.24
CCCCC(O)CC (configuration not stated) | 2.51
NC(N)=NC(N)=Nc1ccccc1 | 2.61
Oc1c(F)c(F)c(O)c(F)c1F | 4.84

Compound | 48 h IGC50 (-log10 mol/L)
O=Cc1ccccc1Br | 3.48
O=Cc1cc(Cl)cc(Cl)c1O | 4.55
CCCCCCCCCCC#N | 4.65
COC(=O)c1ccc(Br)cc1 | 3.6
CC(O)CBr (configuration not stated) | 1.81
CCCCCCCCC(=O)OC | 4.04
CCOC(=O)c1ccc(F)cc1 | 3.01
O=[N+]([O-])c1cccnc1SCc1ccccc1 | 4.72
CCOC(=O)CI | 5.92
CCCCC/C=C/CO | 3.37
Cc1cc(C)c(O)c(N)c1 | 3.89
C#CCN(C)C | 1.85
CCCCCC(=O)Cl | 3.34
C=CCC(=O)O | 2.36
CC(C)c1ccc(Br)cc1 | 3.85
CCCNC | 2.19
O=Cc1cccc(O)c1O | 3.11
CC(C)(C)c1ccc(Br)cc1 | 3.75
O=[N+]([O-])c1ccc(CCl)cc1 | 4.18
Oc1cccc(I)c1 | 4.12
O=C(O)c1cccc(Cl)c1Cl | 2.59
CCCCC#CCCO | 3.02
Cc1ccc(C)c(N)c1 | 2.67
N#CCCC#N | 1.18

Compound | 48 h IGC50 (-log10 mol/L)
CNCC(O)CO (configuration not stated) | 1.47
ClC/C=C/CCl | 3.77
C=CS(=O)(=O)c1ccccc1 | 4.28
Cc1cccc(C#N)c1 | 2.75
C=CCc1ccccc1 | 3.19
CCOC(=O)CCC(=O)CCC(=O)OCC | 2.36
Oc1cc(Cl)cc(Cl)c1 | 4.56
Cc1ccc2nc(C)ccc2c1 | 3.68
C=COC(=O)c1ccccc1 | 3.08
OCc1ccc(F)cc1 | 2.38
C#CCOC(=O)C=C | 4.06
CCCCCN=C=S | 4.71
CCCC/C=C/C=O | 4.05
C=CCCC(C)=O | 1.86
C/C=C/COC(C)=O | 2.13
CC(=O)c1ccco1 | 1.96
O=C(NO)c1ccccc1 | 3.38
O=c1ccc(Cl)c[nH]1 | 2.25
CCCCOc1ccc(O)cc1 | 3.7
CCCCCCC#CC(=O)O | 3.71
O=Cc1ccc(I)o1 | 3.33
CC(C)C#N | 1.38
c1cnc2c(c1)ccc1ncccc12 | 4.07
N#CCc1ccccc1 | 2.64

Compound | 48 h IGC50 (-log10 mol/L)
CCOC(=O)c1ccc(C)cc1 | 3.68
CCC(=O)OCC(C)C | 2.31
O=C1CCCO1 | 1.28
CC(O)(Cc1ccccc1)c1ccccc1 (configuration not stated) | 3.8
CCOS(=O)(=O)OCC | 2.3
Cc1ccc(Cl)c(O)c1 | 3.54
O=Cc1ccc(O)c2ccccc12 | 4.05
OC/C=C\CO | 0.851
OC/C=C/c1ccccc1 | 2.92
CCCCCCCCCN | 4.7
Brc1ccncc1.Cl | 2.44
CCc1ccc(C=O)cc1 | 3.29
O=[N+]([O-])c1cccc2ncccc12 | 3.39
C=COC(=O)C=C | 4.42
Cc1cc(C)c(O)c(C)c1 | 3.42
Cc1cc(N)ncc1[N+](=O)[O-] | 3.37
C/C=C/CCCO | 2.25
CCCC#CC(=O)OCC | 3.7
CCN=C=S | 4.63
O=Cc1ccc(Cl)s1 | 3.62
CC(=O)c1cccs1 | 2.41
COc1cccc(C=O)c1O | 3.38
O=C1C=CC(=O)c2c(O)ccc(O)c21 | 5.83
CC(C)CC(=O)OCCc1ccccc1 | 4.1

Compound | 48 h IGC50 (-log10 mol/L)
CCCCCCCCCCC=O | 4.69
O=[N+]([O-])c1ccc(I)c([N+](=O)[O-])c1 | 5.12
OCc1cccc(F)c1 | 2.61
C=CC(C)O (configuration not stated) | 1.95
OCc1ccccc1O | 2.05
C=C(C)C(=O)OCCCCCC | 4.09
CC(C)(CO)CCl | 2.22
Cc1c(O)cccc1[N+](=O)[O-] | 3.78
CC(C)(N)CO | 1.07
N#CCCCCCCCl | 3.29
CCCCCCCC(=O)OC | 3.54
CCCCCCC(Br)C(=O)OCC (configuration not stated) | 4.5
O=C(O)CCCl | 2.67
Cc1ccnc(C)c1 | 2.35
O=C(Oc1ccccc1)c1ccccc1 | 4.35
CC(Cl)C(N)=O (configuration not stated) | 1.56
CCCCCC#CCCO | 3.34
O=Cc1ccccn1 | 2.86
C=C(C)C#N | 1.35
CNC(C)=O | 1.02
CCOC(=O)C(C)Br (configuration not stated) | 4.06
O=[N+]([O-])c1ccc(/C=N/O)cc1 | 3.68
CC/C=C\CO | 1.9
O=C(O)CCCCBr | 2.31

Compound | 48 h IGC50 (-log10 mol/L)
CCC(N)=O | 0.91
COC(=O)c1cc(O)cc(O)c1 | 2.86
C/C=C/c1ccc(O)c(OC)c1 | 3.75
C#Cc1ccccc1 | 2.86
NCCc1ccccn1 | 2.26
O=[N+]([O-])c1ccc(F)c(Cl)c1 | 3.8
O=[N+]([O-])c1cc(Cl)cc(Cl)c1O | 4.75
Cc1ccc(C=O)c2ccccc12 | 4.12
N#CCCBr | 2.5
Cc1ccc(O)c([N+](=O)[O-])c1 | 3.57
S=C=NC(c1ccccc1)c1ccccc1 | 6.05
C=CCOC(=O)C=CC | 2.52
CC#CCO | 2.13
O=C(O)c1cccc(Cl)c1 | 2.87
O=C(CBr)c1ccc2ccccc2c1 | 5.96
Oc1cc(Cl)c(O)cc1Cl | 4.81
COc1cc(C=O)ccc1O | 2.97
c1cncnc1 | 1.25
N#Cc1cccnc1 | 2.26
COC(=O)c1cccc(O)c1 | 2.95
CCCCC/C=C/C(C)=O | 3.98
Cc1ccc(O)c(O)c1 | 3.37
CCCSc1ccccc1 | 3.86
